Usually pIC50 stands for the negative decadic logarithm of the IC50, by convention in mol/L. A low value points to a large IC50.

This is an account of results in patent publication US20250002486A1, “CYCLIC SULFONAMIDE RIBONUCLEOTIDE REDUCTASE (RNR) INHIBITORS AND USES THEREOF” (Boundless Bio, Inc., priority 2021, published 2025).

For one experiment, the target named is RNR (RNR1:RNR2 1:1) (Homo sapiens (Human), UniProt P23921). Nature of the experiment: RNR enzyme activity, rapid-fire mass spectrometry (RF/MS) assay. It is filed as biochemical. The settings on record: RNR 50 nM, 1:1 RNR1:RNR2; CDP 5 μM, ATP 1 mM; 37° C., 45 min; compounds screened up to 50 μM. As to the method: A rapid-fire mass spectrometry (RF/MS) assay was used to assess RNR enzyme activity using a 384 well plate and a robotic platform.
The plate layout included two validated reference compounds (Triapine (3-AP) and Hydroxyurea (HU)): • A dose response in duplicate; top concentration: 5 μM (3-AP) and 250 μM (HU), semi-log • dilutions. • Spike wells in triplicate randomly spotted at four concentrations: • 250 μM, 100 μM, 30 μM and 2 μM for HU • 5 μM, 2 μM, 0.6 μM and 0.04 μM for 3-AP
First, the multidrop pipes were saturated for 30 minutes with enzymatic solution. Then 30 μL of Stop solution was distributed in column 24. Next, 15 μL of enzyme was distributed in column 1 to 24. Next, a pre-incubation step of 15 minutes at room temperature occurred, followed by distribution of 15 μL of substrate solution (column 1 to 24). Next, the plate was incubated for 45 minutes at 37° C. 30 μL of Stop solution was distributed to columns 1 to 23.
The final parameters for the enzyme reactions were: • Incubation: 37° C., 45 min • [CDP]: 5 μM; [ATP]: 1 mM; [NADPH]: No • [RNR]final: 50 nM with 1:1 (RNR1:RNR2) ratio • Final volume: 30 μL • Stop solution: 6% HCOOH containing 2 μM of 15

In experiment [1] the test system is pCHK1 (S345) in Colo320 DM cells. Nature of the experiment: Alphalisa assay: pCHK1 (S345) detection in Colo320 DM cells. It is filed as cell-based, human. The following applies: compound incubation overnight (approximately 16 hours), pCHK1 (S345) AlphaLisa Sure Fire kit. On the procedure: Colo320 DM cells (ATCC #CCL-220, derived from human colorectal adenocarcinoma, Dukes' type C) were seeded on a 96-well, cell culture treated assay plate at a density of 50,000 cells/well in 200 μL of RPMI-1640 media supplemented with 10% Fetal Bovine Serum and incubated at 37 degrees Celsius overnight. The following day, test compound dilutions were added directly to the plated cells by a Tecan digital dispenser to a final DMSO concentration of <0.5%. and incubated at 37 degrees Celsius overnight (approximately 16 hours). The following day all cull culture media was removed from the cells. 75 μL of 1× AlphaLisa lysis buffer was added to each well and plates were agitated on a shaker for 30 minutes at room temperature. The lysis of cells and detection of pCHK1 (S345) were performed with regents contained within the AlphaLisa Sure Fire assay kit (Perkin Elmer #ALSU-PCHK1-A) according to the manufacturer's instructions. 10 μL of each lysate was then transferred to a white, 384-well assay plate (Perkin Elmer #6008280). 5 μL of Acceptor mix was then added to each well of lysate in the white, 384-well assay plate and incubated in the dark at room temperature for 60 minutes. 5 μL of Donor mix was then added to each well of the white, 384-well assay plate in subdued light and incubated at room temperature for 60 minutes. Plates were read on an Alpha Technology-compatible plate reader using standard AlphaLisa settings.

pIC50: −log10 of the molar value.

RNR (RNR1:RNR2 1:1), sequence (P23921 whole entry): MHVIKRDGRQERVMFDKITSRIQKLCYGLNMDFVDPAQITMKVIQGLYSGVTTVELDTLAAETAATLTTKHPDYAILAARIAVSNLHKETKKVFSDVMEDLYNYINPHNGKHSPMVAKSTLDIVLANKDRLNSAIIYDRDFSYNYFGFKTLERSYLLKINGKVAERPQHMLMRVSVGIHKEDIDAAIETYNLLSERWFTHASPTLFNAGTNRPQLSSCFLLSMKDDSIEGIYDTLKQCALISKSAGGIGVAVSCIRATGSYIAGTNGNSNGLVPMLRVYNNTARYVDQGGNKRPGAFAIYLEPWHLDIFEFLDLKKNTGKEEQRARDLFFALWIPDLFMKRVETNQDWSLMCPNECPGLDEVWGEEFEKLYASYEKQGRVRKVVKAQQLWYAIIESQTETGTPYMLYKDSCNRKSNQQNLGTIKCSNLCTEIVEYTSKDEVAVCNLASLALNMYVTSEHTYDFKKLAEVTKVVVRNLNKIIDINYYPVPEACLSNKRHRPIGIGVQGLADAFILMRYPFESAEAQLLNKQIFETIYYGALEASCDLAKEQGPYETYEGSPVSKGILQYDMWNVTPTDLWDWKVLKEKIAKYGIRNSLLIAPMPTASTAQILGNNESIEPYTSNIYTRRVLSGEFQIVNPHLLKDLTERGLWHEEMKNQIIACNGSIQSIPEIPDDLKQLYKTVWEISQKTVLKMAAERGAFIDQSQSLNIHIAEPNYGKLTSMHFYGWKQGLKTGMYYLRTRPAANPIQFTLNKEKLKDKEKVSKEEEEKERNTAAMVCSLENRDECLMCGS

Regarding `COc1cc(Cl)cc2c1S(=O)(=O)N([C@@H](c1n[nH]c(=O)o1)[C@@H](C)c1c(F)ccc(C)c1C)C2=O` (stereo in doubt) [Example 3, 5-((1R,2S)-1-(5-chloro-7-methoxy-1,1-dioxido-3-oxobenzo[d]isothiazol-2(3H)-yl)-2-(6-fluoro-2,3-dimethylphenyl)propyl)-1,3,4-oxadiazol-2(3H)-one], the values for the pIC50 (against RNR (RNR1:RNR2 1:1); in experiment [1]) were 4.00 to 5.00 and below 4.30, respectively.

As to `COc1cc(Cl)cc2c1S(=O)(=O)N([C@@H](c1n[nH]c(=O)o1)[C@H](C)c1c(F)ccc(C)c1C)C2=O` (stereo in doubt) [Example 4, 5-((1R,2R)-1-(5-chloro-7-methoxy-1,1-dioxido-3-oxobenzo[d]isothiazol-2(3H)-yl)-2-(6-fluoro-2,3-dimethylphenyl)propyl)-1,3,4-oxadiazol-2(3H)-one], the pIC50 on RNR (RNR1:RNR2 1:1) is 4.00 to 5.00; in experiment [1] (Homo sapiens, COLO 320DM) it was below 4.30.

As for `COc1cc(Cl)cc2c1S(=O)(=O)N([C@@H](c1n[nH]c(=O)o1)[C@@H](C)c1c(F)ccc(C)c1C)C2=O` (stereo in doubt) [Example 15, 5-((1R,2S)-1-(5-chloro-7-methoxy-1,1-dioxido-3-oxobenzo[d]isothiazol-2(3H)-yl)-2-(6-fluoro-2,3-dimethylphenyl)propyl)-1,3,4-oxadiazol-2(3H)-one], the pIC50 against RNR (RNR1:RNR2 1:1) is 4.00 to 5.00; in experiment [1] (Homo sapiens, COLO 320DM), below 4.30.

Regarding `Cc1ccc(F)c([C@@H](C)[C@@H](c2n[nH]c(=O)o2)N2C(=O)c3cc(Cl)ccc3S2(=O)=O)c1C` [Example 1, 5-((1S,2R)-1-(5-chloro-1,1-dioxido-3-oxobenzo[d]isothiazol-2(3H)-yl)-2-(6-fluoro-2,3-dimethylphenyl)propyl)-1,3,4-oxadiazol-2(3H)-one], the pIC50 on RNR (RNR1:RNR2 1:1) was 4.00 to 5.00; in experiment [1] (Homo sapiens, COLO 320DM), below 4.30.

Take `Cc1ccc(F)c([C@H](C)[C@@H](c2n[nH]c(=O)o2)N2C(=O)c3cc(Cl)ccc3S2(=O)=O)c1C` [Example 2, 5-((1S,2S)-1-(5-chloro-1,1-dioxido-3-oxobenzo[d]isothiazol-2(3H)-yl)-2-(6-fluoro-2,3-dimethylphenyl)propyl)-1,3,4-oxadiazol-2(3H)-one]: the negative-log IC50 (pIC50) is 5.00 to 6.00 at RNR (RNR1:RNR2 1:1) and below 4.30 in experiment [1] (Homo sapiens, COLO 320DM).

Turning to `COc1cc(Cl)cc2c1S(=O)(=O)N([C@H](c1n[nH]c(=O)o1)[C@@H](C)c1c(F)ccc(C)c1C)C2` [Example 5, 5-((1S,2S)-1-(5-chloro-7-methoxy-1,1-dioxidobenzo [d]isothiazol-2(3H)-yl)-2-(6-fluoro-2,3-dimethylphenyl)propyl)-1,3,4-oxadiazol-2(3H)-one], the negative-log IC50 (pIC50) was 4.00 to 5.00 on RNR (RNR1:RNR2 1:1) and below 4.30 in experiment [1] (Homo sapiens, COLO 320DM).

Turning to `COc1cc(Cl)cc2c1S(=O)(=O)N([C@H](c1n[nH]c(=O)o1)[C@H](C)c1c(F)ccc(C)c1C)C2` [Example 6, 5-((1S,2R)-1-(5-chloro-7-methoxy-1,1-dioxidobenzo [d]isothiazol-2(3H)-yl)-2-(6-fluoro-2,3-dimethylphenyl)propyl)-1,3,4-oxadiazol-2(3H)-one], the pIC50 against RNR (RNR1:RNR2 1:1) is 5.00 to 6.00; in experiment [1] (Homo sapiens, COLO 320DM), below 4.30.

Turning to `Cc1ccc(F)c([C@@H](C)[C@@H](c2n[nH]c(=O)o2)N2CCc3cc(Cl)ccc3S2(=O)=O)c1C` [Example 7, 5-((1S,2R)-1-(6-chloro-1,1-dioxido-3,4-dihydro-2H-benzo[e][1,2]thiazin-2-yl)-2-(6-fluoro-2,3-dimethylphenyl)propyl)-1,3,4-oxadiazol-2(3H)-one], the pIC50 was at least 7.00 against RNR (RNR1:RNR2 1:1) and at least 5.30 in experiment [1] (Homo sapiens, COLO 320DM).

Take `Cc1ccc(F)c([C@H](C)[C@H](c2n[nH]c(=O)o2)N2CCc3cc(Cl)ccc3S2(=O)=O)c1C` [Example 8, 5-((1R,2S)-1-(6-chloro-1,1-dioxido-3,4-dihydro-2H-benzo[e][1,2]thiazin-2-yl)-2-(6-fluoro-2,3-dimethylphenyl)propyl)-1,3,4-oxadiazol-2(3H)-one]: the negative logarithm of the IC50 (pIC50) was 4.00 to 5.00 against RNR (RNR1:RNR2 1:1) and below 4.30 in experiment [1] (Homo sapiens, COLO 320DM).

Turning to `Cc1ccc(F)c([C@@H](C)[C@@H](c2n[nH]c(=O)o2)N2CCCc3cc(Cl)ccc3S2(=O)=O)c1C` [Example 9, 5-((1S,2R)-1-(7-chloro-1,1-dioxido-4,5-dihydrobenzo [f][1,2]thiazepin-2(3H)-yl)-2-(6-fluoro-2,3-dimethylphenyl)propyl)-1,3,4-oxadiazol-2(3H)-one], the pIC50 against RNR (RNR1:RNR2 1:1) was at least 7.00; in experiment [1] (Homo sapiens, COLO 320DM) it was at least 5.30.

As for `Cc1ccc(F)c([C@H](C)[C@@H](c2n[nH]c(=O)o2)N2CCCc3cc(Cl)ccc3S2(=O)=O)c1C` [Example 10, 5-((1S,2S)-1-(7-chloro-1,1-dioxido-4,5-dihydrobenzo [f][1,2]thiazepin-2(3H)-yl)-2-(6-fluoro-2,3-dimethylphenyl)propyl)-1,3,4-oxadiazol-2(3H)-one], the pIC50 is 4.00 to 5.00 against RNR (RNR1:RNR2 1:1) and below 4.30 in experiment [1] (Homo sapiens, COLO 320DM).

In the case of `Cc1ccc(F)c([C@@H](C)[C@@H](c2n[nH]c(=O)o2)N2CCc3ccc(Cl)cc3S2(=O)=O)c1C` [Example 11, 5-((1S,2R)-1-(7-chloro-1,1-dioxido-3,4-dihydro-2H-benzo[e][1,2]thiazin-2-yl)-2-(6-fluoro-2,3-dimethylphenyl)propyl)-1,3,4-oxadiazol-2(3H)-one], the negative logarithm of the IC50 (pIC50) at RNR (RNR1:RNR2 1:1) was 6.00 to 7.00; in experiment [1] (Homo sapiens, COLO 320DM) it was below 4.30.

For the compound `Cc1ccc(F)c([C@H](C)[C@@H](c2n[nH]c(=O)o2)N2CCc3ccc(Cl)cc3S2(=O)=O)c1C` [Example 12, 5-((1S,2s)-1-(7-chloro-1,1-dioxido-3,4-dihydro-2H-benzo[e][1,2]thiazin-2-yl)-2-(6-fluoro-2,3-dimethylphenyl)propyl)-1,3,4-oxadiazol-2(3H)-one], the pIC50 against RNR (RNR1:RNR2 1:1) was 4.00 to 5.00; in experiment [1] (Homo sapiens, COLO 320DM), below 4.30.

For `Cc1ccc(F)c([C@@H](C)[C@@H](c2nn[nH]n2)N2CCc3cc(Cl)ccc3S2(=O)=O)c1C` [Example 13, 6-chloro-2-((1S,2R)-2-(6-fluoro-2,3-dimethylphenyl)-1-(2H-tetrazol-5-yl)propyl)-3,4-dihydro-2H-benzo[e][1,2] thiazine 1,1-dioxide], the pIC50 against RNR (RNR1:RNR2 1:1) was at least 7.00; in experiment [1] (Homo sapiens, COLO 320DM) it was 5.00 to 5.30.

`Cc1ccc(F)c([C@@H](C)[C@@H](c2n[nH]c(=O)o2)N2Cc3cc(Cl)ccc3S2(=O)=O)c1C` [Example 14, 5-((1S,2R)-1-(5-chloro-1,1-dioxidobenzo [d]isothiazol-2(3H)-yl)-2-(6-fluoro-2,3-dimethylphenyl)propyl)-1,3,4-oxadiazol-2(3H)-one]: the pIC50 was 5.00 to 6.00 at RNR (RNR1:RNR2 1:1) and below 4.30 in experiment [1] (Homo sapiens, COLO 320DM).

Take `Cc1ccc(F)c(C(C)[C@@H](c2n[nH]c(=O)o2)N2CC(=O)c3cc(Cl)ccc3S2(=O)=O)c1C` (stereo partly drawn) [Example 16, 5-((1S)-1-(6-chloro-1,1-dioxido-4-oxo-3,4-dihydro-2H-benzo[e] [1,2]thiazin-2-yl)-2-(6-fluoro-2,3-dimethylphenyl)propyl)-1,3,4-oxadiazol-2(3H)-one]: the pIC50 on RNR (RNR1:RNR2 1:1) was 6.00 to 7.00; in experiment [1] (Homo sapiens, COLO 320DM), 5.00 to 5.30.

On to `Cc1ccc(F)c(C(C)[C@@H](c2n[nH]c(=O)o2)N2C(=O)Cc3cc(Cl)ccc3S2(=O)=O)c1C` (stereo partly drawn) [Example 17, 5-((1S)-1-(6-chloro-1,1-dioxido-3-oxo-3,4-dihydro-2H-benzo[e] [1,2]thiazin-2-yl)-2-(6-fluoro-2,3-dimethylphenyl)propyl)-1,3,4-oxadiazol-2(3H)-one], for which the pIC50 was 4.00 to 5.00 against RNR (RNR1:RNR2 1:1) and below 4.30 in experiment [1] (Homo sapiens, COLO 320DM).

For `Cc1ccc(F)c([C@@H](C)[C@@H](c2n[nH]c(=O)o2)N2CCc3ccccc3S2(=O)=O)c1C` [Example 18, 5-((1S,2R)-1-(1,1-dioxido-3,4-dihydro-2H-benzo[e] [1,2]thiazin-2-yl)-2-(6-fluoro-2,3-dimethylphenyl)propyl)-1,3,4-oxadiazol-2(3H)-one], the pIC50 against RNR (RNR1:RNR2 1:1) was 6.00 to 7.00; in experiment [1] (Homo sapiens, COLO 320DM), 4.30 to 5.00.

For the compound `Cc1ccc(F)c([C@@H](C)[C@@H](c2n[nH]c(=O)o2)N2CC(O)c3cc(Cl)ccc3S2(=O)=O)c1C` (stereo partly drawn) [Example 19, 5-((1S,2R)-1-(6-chloro-4-hydroxy-1,1-dioxido-3,4-dihydro-2H-benzo[e][1,2]thiazin-2-yl)-2-(6-fluoro-2,3-dimethylphenyl)propyl)-1,3,4-oxadiazol-2(3H)-one], the pIC50 against RNR (RNR1:RNR2 1:1) was 6.00 to 7.00; in experiment [1] (Homo sapiens, COLO 320DM), 4.30 to 5.00.
